“Also recorded” adds a separate entry of the source.
Legend:
hair cycle = test: Topical treatment of mice in telogen with UK-5099: hair cycle / HFSC activation; assay type: in vivo
Method: (§1) FIG. 7A: Animals treated topically with UK-5099 (20 μM) show pigmentation and hair growth, indicative of entry into anagen, after 8 days of treatment. Full anagen, indicated by full coat of hair, is achieved after 14 days of treatment. […] Images shown are representative of at least 14 mice from 7 independent experiments. Scale bars indicate 100 micrometers. FIG. 7B: Graph showing time to observed phenotype in vehicle versus UK-5099 treated mice. n=6 mice per condition. Shown as mean±SEM. […] Ldh activity is indicated by purple stain; pink is nuclear fast red counterstain. Scale bars indicate 50 micrometers. FIG. 7D: Metabolomic analysis of Lactate on HFSCs isolated from UK-5099 treated skin for 48 hours; Each bar represents the average signal for each condition where n=9 mice pooled from 3 independent experiments. Shown as mean±SEM. Paired t-test was performed, p<0.05.
(§2) Quantification of the hair cycle across at least 6 pairs of animals (vehicle vs UK-5099) indicated a strong acceleration of the hair cycle, in as few as 6-9 days (FIG. 7B).

[1] = system: Ldh activity in HFSCs and the interfollicular epidermis; test: Ldh enzyme activity assay in the epidermis of topically treated animals; assay type: in vivo, mice; settings: topical, 48 hours during telogen
Method: as §1
To determine whether Ldha expression patterns correlate with activity of the Ldh enzyme, a colorimetric-based enzymatic assay was used to assess Ldh activity capacity in situ. Typically performed on protein lysates or aliquots with a plate reader, the Ldh activity assay was adapted to work in situ on frozen tissue sections. […]
as §2

lactate in sorted HFSCs = test: Metabolomic analysis of lactate on HFSCs isolated from treated skin; assay type: in vivo, mice; settings: topical application, skin treated for 48 hours
Method: as §1, §2

[2] = topical treatment of animals in telogen (day 50)

## N#C/C(=C\c1cn(-c2ccccc2)c2ccccc12)C(=O)O [UK-5099, (E)-2-Cyano-3-(1-phenyl-1H-indol-3-yl)acrylic acid]
Hair cycle; [2]
  effect on the hair cycle: robust acceleration of the hair cycle
  effect on the interfollicular epidermis (proliferation): minor hyperproliferation of the interfollicular epidermis
Hair cycle; topical, 20 μM
  time to full anagen, indicated by full coat of hair: 14 days
Hair cycle; topical, 20 μM, at 8 weeks, vehicle remained in telogen
  skin pathology (entry into anagen): enter an accelerated anagen
Hair cycle; topical, 20 μM, vehicle shows none even after 12 days
  time to pigmentation and hair growth, indicative of entry into anagen: 8 days
Hair cycle; topical, at least 6 pairs of animals, vehicle vs UK-5099
  time in which acceleration of the hair cycle is seen: 6 to 9 days
[1]
  Ldh activity in HFSCs and interfollicular epidermis: Ldh enzyme activity also seen in interfollicular epidermis; also recorded: increased Ldh activity
Lactate in sorted HFSCs
  total levels of lactate in sorted HFSCs: increases total levels of lactate

— patent US20220048908A1, “COMPOSITIONS AND METHODS FOR MODULATING HAIR GROWTH” (The Regents of the University of California, priority 2019, published 2022)
